In patent US10807959B2, “WDR5-MLL1 inhibitors and modulators” (Vanderbilt University, priority 2018, dated 2020) one finds Ki data, which are given here for 36 compounds.

For one assay, the target named is T1, WDR5 (Homo sapiens (Human), UniProt P61964). Briefly: Fluorescence polarization anisotropy (FPA) competition assay, displacement of FITC-MLL or 10mer-Thr-FAM peptide. Type of assay: binding. To be noted: Inhibition of WDR5 by FPA assay. The source says:
The assay is run in 384-well format and is read on a BioTek Cytation. […] Replicate values are fit to a 4-parameter fit in XLFit to generate a single IC50 value for each compound that is then converted to a Ki value. Experiments are repeated to generate a 2nd, independent Ki value; values from the two experiments are averaged to produce the reported Ki value for the compound.
(Fluorescence polarisation rises when a labelled molecule tumbles more slowly, as on binding a larger partner.)
For the compound `O=C(NC(C1CC1)C1CC1)c1cc(CNC2=NCCN2)cc(-c2ccc(F)cc2Cl)c1` [Example 2, 2′-Chloro-N-(dicyclopropylmethyl)-5-(((4,5-dihydro-1H-imidazol-2-yl)amino)methyl)-4′-fluoro-[1,1′-biphenyl]-3-carboxamide], the Ki (as a rule, a measure of affinity in units of concentration, obtained from inhibition or displacement) came to 6 nM. The same measure, in the same setting: in the case of `COc1cc(CNC(=O)c2cc(CNC3=NCCN3)cc(-c3ccc(F)cc3Cl)c2)cc(OC)c1` [Example 3, 2′-chloro-5-(((4,5-dihydro-1H-imidazol-2-yl)amino)methyl)-N-(3,5-dimethoxybenzyl)-4′-fluoro-[1,1′-biphenyl]-3-carboxamide] it was 2.7 nM. Turning to `O=C(NCc1cc(Cl)cc(Cl)c1)c1cc(Cl)cc(Cn2ccnc2)c1` [Example 110, 3-((1H-Imidazol-1-yl)methyl)-5-chloro-N-(3,5-dichlorobenzyl)benzamide], the Ki was determined as 33.7 nM. For `COc1cc(Cn2ccnc2)cc(C(=O)NCc2ccc(Cl)c(C)c2)c1` [Example 113, 3-((1H-Imidazol-1-yl)methyl)-N-(4-chloro-3-methylbenzyl)-5-methoxybenzamide], the Ki was found to be 141 nM.

Turning to `Cc1cc(CNC(=O)c2cc(Cn3ccnc3)cc(OC3CCCC3)c2)ccc1Cl` [Example 115, 3-((1H-Imidazol-1-yl)methyl)-N-(4-chloro-3-methylbenzyl)-5-(cyclopentyloxy)benzamide], the affinity corresponds to a Ki of 3.5 nM. For `COc1cc(CNC(=O)c2cc(Cn3ccnc3)cc(Oc3ccccc3)c2)cc(OC)c1` [Example 120, 3-((1H-imidazol-1-yl)methyl)-N-(3,5-dimethoxybenzyl)-5-phenoxybenzamide], the inhibitory constant (Ki) amounted to 5.1 nM. Same read-out and setting: in the case of `Cc1ccncc1-c1cc(Cn2ccnc2)cc(C(=O)NCc2ccc(Cl)c(Cl)c2)c1` [Example 121, 3-((1H-imidazol-1-yl)methyl)-N-(3,4-dichlorobenzyl)-5-(4-methylpyridin-3-yl)benzamide] it was 1.3 nM.

Still in this assay, the particulars now being: Table B2, WDR5 WIN-site binding affinity; values not less than 1 nM (FPA).
Regarding “3-(((4,5-dihydro-1H-imidazol-2-yl)amino)methyl)-N-(3,5-dimethoxybenzyl)-4,5-difluorobenzamide [Example B30]”, the inhibitory constant (Ki) stood at 5.32 nM.

A further assay deals with T1, WDR5. Briefly: TR-FRET binding assay, displacement of 10mer-Thr-FAM probe from His-tagged WDR5.
Conditions: not given
The protocol:
The LanthaScreenTM Elite Tb-anti-HIS Antibody from ThermoFisher Scientific was used for this purpose. […] The ratio of the 520 and 495 signals are then utilized to generate a dose-response curve to calculate an IC50 value. […] WDR[…] tag protein is used at 2 nM.
A general note: Time-resolved FRET reads energy transfer from a long-lived donor to a nearby acceptor.
Take `COc1ccc(C(=O)NCc2ccc(Cl)c(Cl)c2)cc1CNC1=NCCN1` [Example B28]: the affinity corresponds to a Ki of 0.622 nM. Still for that read-out and setting: in the case of `O=C(NCc1ccc(Cl)c(Cl)c1)c1cc(F)c(F)c(CNC2=NCCN2)c1` [Example B33] it was 0.444 nM; in that of `O=C(NCc1ccc(Cl)c(Cl)c1)c1cc(CNC2=NCCN2)ccc1F` [Example B36, N-(3,4-dichlorobenzyl)-5-(((4,5-dihydro-1H-imidazol-2-yl)amino)methyl)-2-fluorobenzamide], 0.917 nM. Same read-out and setting: in the case of `Cc1cc(CNC(=O)c2ccc(F)c(CNC3=NCCN3)c2)ccc1Cl` [Example B47] it was 0.189 nM; in that of `COc1cc(CNC(=O)c2cc(CNC3=NCCN3)cc(-c3ccc(F)nc3C)c2)cc(OC)c1` [Example B63], 0.131 nM. `Cc1nc(F)ccc1-c1cc(CNC2=NCCN2)cc(C(=O)NCc2ccc(Cl)c(Cl)c2)c1` [Example B64] showed a Ki of 0.0213 nM.

In turn, `COc1cc(CNC(=O)c2cc(CNC3=NCCN3)cc(-c3ccnc(C)c3)c2)cc(OC)c1` [Example B72] came in with a Ki of 0.634 nM. Consider `Cc1cc(-c2cc(CNC3=NCCN3)cc(C(=O)NCc3ccc(Cl)c(Cl)c3)c2)ccn1` [Example B74], for which the Ki came out at 0.0312 nM. In turn, `Cc1cc(-c2cc(CNC3=NCCN3)cc(C(=O)NCc3cc(Cl)cc(Cl)c3)c2)ccn1` [Example B81] came in with a Ki of 0.033 nM.

Consider `Cc1cc(-c2cc(CNC3=NCCN3)cc(C(=O)NCc3ccc(Cl)c(C)c3)c2)ccn1` [Example B84], for which the Ki came to 0.118 nM. Still for that read-out and setting: in the case of `Cc1ccncc1-c1cc(CNC2=NCCN2)cc(C(=O)NCc2cc(Cl)cc(Cl)c2)c1` [Example B87] it was 0.198 nM.

For the compound `Cc1cc(C)cc(CNC(=O)c2cc(CNC3=NCCN3)cc(-c3ccnc(C)c3)c2)c1` [Example B90], the Ki stood at 0.115 nM. In turn, `Cc1ccncc1-c1cc(CNC2=NCCN2)cc(C(=O)NC(C2CC2)C2CC2)c1` [Example B93] yielded a Ki of 0.759 nM. In turn, `Cc1cc(-c2cc(CNC3=NCCN3)cc(C(=O)NCc3ccc(Cl)c(Cl)c3)c2)cnc1F` [Example B99] had a Ki of 0.0875 nM.

With `COc1ccc(CNC(=O)c2cc(CNC3=NCCN3)cc(-c3cc(C)cnc3F)c2)cc1OC` [Example B107], the affinity, expressed as Ki, was 0.0965 nM.

`COc1cc(CNC(=O)c2cc(CNC3=NCCN3)cc(-c3cc(C)cnc3F)c2)cc(OC)c1` [Example B109] returned a Ki of 0.0385 nM.

`Cc1cc(-c2cc(CNC3=NCCN3)cc(C(=O)NCc3cc(Cl)ccn3)c2)cc(C)n1` [Example B111] displayed a Ki of 0.0875 nM.

As for `COc1ccnc(CNC(=O)c2cc(CNC3=NCCN3)cc(-c3cc(OC)ccc3OC)c2)c1` [Example B115], the Ki stood at 0.48 nM. Same read-out and setting: in the case of `COc1ccnc(CNC(=O)c2cc(CNC3=NCCN3)cc(-c3cc(Cl)ccc3OC)c2)c1` [Example B116] it was 0.106 nM; in that of `O=C(NCc1ccc(Cl)c(Cl)c1)c1cc(CNC2=NCCN2)cc(-c2ccc(F)nc2F)n1` [Example C2], 0.311 nM.

For `Cc1cc(F)ccc1-c1cc(CNC2=NCCC2)cc(C(=O)NCc2ccc(Cl)c(Cl)c2)n1` [Example C22], the affinity, expressed as Ki, was 0.132 nM.

Still in this assay, the particulars now being: Inhibition of WDR5 by TR-FRET assay.
`COc1ccnc(CNC(=O)c2cc(C)c(OC)c(Cn3ccnc3C)c2)c1` [Example 146, 4-Methoxy-N-((4-methoxypyridin-2-yl)methyl)-3-methyl-5-((2-methyl-1H-imidazol-1-yl)methyl)benzamide] returned a Ki of 500 nM.

Regarding `Cc1nccn1Cc1cc(C(=O)NCc2ccc(Cl)c(Cl)c2)cc(-c2cccc(CO)c2)c1` [Example 147, N-(3,4-dichlorobenzyl)-3′-(hydroxymethyl)-5-((2-methyl-1H-imidazol-1-yl)methyl)-[1,1′-biphenyl]-3-carboxamide], the affinity corresponds to a Ki of 0.31 nM. For the compound `COc1cc(OC)cc(C(C)NC(=O)c2cc(Cn3ccnc3C)cc(-c3cccc(CO)c3)n2)c1` (stereo not drawn) [Example 157, N-(1-(3,5-dimethoxyphenyl)ethyl)-6-(3-(hydroxymethyl)phenyl)-4-((2-methyl-1H-imidazol-1-yl)methyl)picolinamide], the Ki is 27 nM.

As to `COc1cc(OC)cc(C(C)NC(=O)c2cc(Cn3ccnc3C)cc(-c3ccc(F)cc3OC)n2)c1` (stereo not drawn) [Example 158, N-(1-(3,5-dimethoxyphenyl)ethyl)-6-(4-fluoro-2-methoxyphenyl)-4-((2-methyl-1H-imidazol-1-yl)methyl)picolinamide], the Ki was 8 nM. Still for that read-out and setting: in the case of `COc1cc(OC)cc(C(C)NC(=O)c2cc(Cn3ccnc3C)cc(-c3ccc(F)c(C(N)=O)c3)n2)c1` (stereo not drawn) [Example 161, 6-(3-Carbamoyl-4-fluorophenyl)-N-(1-(3,5-dimethoxyphenyl)ethyl)-4-((2-methyl-1H-imidazol-1-yl)methyl)picolinamide] it was above 33 nM; in that of `COc1cc(OC)cc(C(C)NC(=O)c2cc(Cn3ccnc3C)cc(-c3ccc(F)c(CO)c3)n2)c1` (stereo not drawn) [Example 163, N-(1-(3,5-dimethoxyphenyl)ethyl)-6-(4-fluoro-3-(hydroxymethyl)phenyl)-4-((2-methyl-1H-imidazol-1-yl)methyl)picolinamide], above 33 nM. For the compound `COc1cc(F)ccc1-c1cc(Cn2ccnc2C)cc(C(=O)NCc2ccc(Cl)c(Cl)c2)n1` [Example 165, N-(3,4-Dichlorobenzyl)-6-(4-fluoro-2-methoxyphenyl)-4-((2-methyl-1H-imidazol-1-yl)methyl)picolinamide], the affinity, expressed as Ki, was 11 nM.
